In EP3578559B1, “DYE FOR FLUORESCENT STAINING OF STRATUM CORNEUM, MANNER OF ITS SYNTHESIS AND APPLICATION IN MICROSCOPY, INCLUDING IDENTIFICATION OF ROUTES OF SUBSTANCES PENETRATION TO THE SKIN AND ASSESSMENT OF STRUCTURAL DISORDERS OF THIS LAYER” (Gdanski Uniwersytet Medyczny, priority 2018, dated 2019):
Entries after “also recorded” stand apart in the source; their conditions may differ. Like-named read-outs stand apart in the source and are kept apart here.

How the values were obtained:
stratum corneum = assay: Fluorescent microscopy staining of stratum corneum of human skin ex vivo
Description: To obtain microscopic images of stratum corneum in a fluorescent microscope (Nikon Eclipse 50, Japan; the mercury lamp; the filter for wavelength: 330-380 nm; software for data acquisition NIS Elements AR 3.2.) Standard methodology was applied. A fragment of human skin ex vivo (1 cm x 1 cm) was subject to heat separation procedure (temperature 60 °C; 30 seconds) in order to separate epidermis (including stratum corneum) from the dermis. Fragments of the epidermis were placed on a microscopic glass, fluorescent dyes were applied and then incubated in thermostat for 10 minutes at 37 °C. After this time, the excess of dyes was removed by the use of laboratory absorption blotting paper and images of microscopic magnification were recorded in 10 x magnification of the lens, using the exposure time of 15-600 ms.

[1] = Octanol/water partition coefficient (logP), experimentally assigned; settings: for octanol/water division ratio: ratio of concentrations of the dye in octanol/water
[2] = Fluorescence optical properties of the dye (Stokes shift, absorption/emission); assay type: physicochemical
[3] = commercial dye; cited from earlier work
[4] = post application of water / hydrophilic compounds, 10x

In the case of `CC[N+]1(CC)CN2C(=N1)C(C(=O)[O-])=Cc1ccccc12` [P4], the “characterization of hydrophilicity/lipophilicity with regard to diffusion to stratum corneum” value (stratum corneum; on the basis of the conducted research) is reported as “too hydrophilic”, the “staining of the lipids inside the lipid matrix or corneocytes proteins” value (stratum corneum; stratum corneum structures) is reported as “lack of staining” and the logP (physchem) is reported as -1.9. The octanol/water division ratio [1] was 0,01.

With `CCCCCCOC(=O)c1ccccc1-c1c2ccc(=[N+](CC)CC)cc-2oc2cc(N(CC)CC)ccc12` [RBHE, Rhodamine hexylester] the “microscope image quality of stained structures” value (stratum corneum; after application of siloxane with a cyclic structure, compared with SAFQ8MeAKT, 10x) was “not as explicit”, the staining of canyons (stratum corneum; lipophilic compounds (siloxane D4), 10x) was “does not stain canyons so vividly” and the staining of canyons (stratum corneum; [4]) was “canyons are not visible; also recorded: does not dye canyons”.

In the case of `CC[N+]1(CC)CN2C(=N1)C(C(=O)ON1C(=O)CCC1=O)=Cc1ccc(C)cc12.[Cl-]` [SAFQ8MeAKT, 4-((2,5-dioxopyrrolidin-1-yloxy)carbonyl)-2,2-diethyl-8-methyl-1,2-dihydro-[1,2,4]triazolo[4,3-a]quinolin-2-ium chloride], the staining of corneocytes (stratum corneum; 10x) is reported as “staining of the inside of corneocytes”, the staining of canyons (stratum corneum; [4]) is reported as “canyons are stained” and the Stokes shift [2] is reported as 95 nm. It also gave a characteristic absorption [2] of 365 nm, a characteristic emission [2] of 460 nm and a logP (physchem) of -0.43. The octanol/water division ratio [1] was 0,37 and the “greater lipophilicity than P4 dye” value ([1]; relative to P4 dye) was “approx. 40 times”.

For `CCN(CC)c1ccc2c(-c3ccc(S(=O)(=O)O)cc3S(=O)(=O)[O-])c3ccc(=[N+](CC)CC)cc-3oc2c1` [SRB, Sulforhodamines B], the staining of corneocytes (stratum corneum; 10x) is given as “noticeably stains corneocytes”, the staining of canyons (stratum corneum; dye alone (Fig. 11), 10x) is given as “does not dye the canyons” and the characteristic absorption [3] is given as 565 nm. For the same compound, the characteristic emission [3] was 590 nm.
